These are literature values, as cited in patent US20060211763A1, “Treatment with Statin and Omega-3 Fatty Acids and a Combination Product Thereof” (priority 2005, published 2006).

The test system of data set [1] is patients with hyperlipidemia. The note with it: 900 or 1800 mg/day EPA ethyl ester for 3 months added to 5-20 mg/day pravastatin or 5 mg/day simvastatin; vs baseline monotherapy.
Data set [2] deals with patients with hyperlipemia. The settings on record: 10 mg/day atorvastatin 5 weeks (vs baseline).
The conditions of data set [3]: in vivo.
Data set [4] relates to patients with hypercholesterolemia. The settings on record: 40 mg/day lovastatin 6 weeks.
[5] abbreviates: then plus 2 g/day Omacor 5 weeks (vs atorvastatin alone; insignificant).
Where [6] appears, read: then combination with 6 g/day Omacor 6 weeks.

Molecules are shown by their SMILES.

Regarding `CC/C=C\C/C=C\C/C=C\C/C=C\C/C=C\CCCC(=O)OCC` [EPA ethyl ester], in data set [1], the HDL-C levels entry was “significantly increased” and the Triglyceride levels result is listed as “significantly reduced”.

In the case of `CC(C)c1c(C(=O)Nc2ccccc2)c(-c2ccccc2)c(-c2ccc(F)cc2)n1CC[C@@H](O)C[C@@H](O)CC(=O)O` [atorvastatin], the HDL-C levels result in data set [2] (then plus 2 g/day Omacor 5 weeks (vs atorvastatin alone)) was “significantly increased”. Moreover, in data set [2] (setting [5]), the LDL-C levels result is reported as “significantly decreased” and the Triglyceride levels result is on record as “significantly decreased”.

`CC(C)n1c(/C=C/C(O)CC(O)CC(=O)O)c(-c2ccc(F)cc2)c2ccccc21` (stereo not drawn) [fluvastatin]: the Bioavailability entry in data set [3] is on record as “approximately 24%”.

`CC[C@H](C)C(=O)O[C@H]1C[C@@H](C)C=C2C=C[C@H](C)[C@H](CC[C@@H]3C[C@@H](O)CC(=O)O3)[C@H]21` [lovastatin]: the “Degradation in alkaline environment” value is “converted to the acid form”. In data set [4], the HDL-C levels result is “significant increases”. Further, in data set [4] (setting [6]), the LDL-C levels result is listed as “significant decreases” and the Triglyceride levels entry is given as “significant decreases”. Also, the Rate of absorption entry in data set [3] is reported as “about 30%”.

As to `CC[C@H](C)C(=O)O[C@H]1C[C@H](O)C=C2C=C[C@H](C)[C@H](CC[C@@H](O)C[C@@H](O)CC(=O)O)[C@H]21` [pravastatin], the “Effect of food on absorption” value in data set [3] is given as “best absorbed without food”.
